From patent US20210253651A1, “METHOD FOR PRODUCING ORGANIC COMPOUND-ENCAPSULATING FERRITIN” (Ajinomoto Co., Inc., priority 2018, published 2021)
Where two headings read alike, the source gives them in different places. Values belong to the molecule of their own block, whether it stands above or below them.

Tests used:
[1] = biological target: T1, FTH ferritin (Homo sapiens, UniProt P02794); experiment: one-step process incorporation of small molecule agents into FTH ferritin; assay type: physicochemical; conditions: for Number of agent incorporated / Incorporation efficiency (wt %): 60 min; for Optimal pH in reaction: pH of buffer giving the largest amount of incorporation within ferritin
T1 construct: made in house; host or cells: Escherichia coli BL21 (DE3), plasmid pET20-FTH
T1 sequence (P02794 whole entry): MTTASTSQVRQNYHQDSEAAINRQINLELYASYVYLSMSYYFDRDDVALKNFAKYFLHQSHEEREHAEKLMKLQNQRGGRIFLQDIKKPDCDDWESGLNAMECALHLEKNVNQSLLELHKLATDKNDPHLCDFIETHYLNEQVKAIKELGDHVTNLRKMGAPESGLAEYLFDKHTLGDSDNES
Protocol: All of the reactions were performed in 0.1 mL volume. […] The absorbances were measured using spectrophotometer (DU-800, Beckman Coulter Inc.) for these solutions, and the concentration of contained protein was determined using the protein assay CBB solution (Nacalai Tesque, Inc.) as well as bovine albumin as a standard. Absorbances at 280 nm and 480 nm were measured for Rhodamine B and Congo Red. […] Then, after the absorbances were calibrated based on the absorbances that were derived from the proteins and presumed by the amount of contained protein quantified using the protein assay CBB solution, the concentrations of small molecule agents were determined based on the calibration curves obtained by the absorbances of the molecules. […] As a result, the one-step process enabled incorporating also the small molecule agents with different physical properties such as molecular weight and pKa simply and easily.

[2] = cited from earlier work
[3] = cited from earlier work; remark: listed apart in the source
[4] = biological target: T1, FTH ferritin; experiment: disassembly-reassembly process incorporation of uranine into FTH ferritin; assay type: physicochemical
Protocol: As a control, uranine was incorporated into ferritin in the disassembly-reassembly process. […] Then, 10 μL of 1 M Tris-HCl buffer (pH 9.0) was added for neutralization, and the resulting solution was left to stand for 15 minutes at room temperature. After the standing, 0.5 mL of water was added. After the resulting solution was centrifuged (at 15,000 rpm for one minute), the supernatant was injected into the desalting column PD-10 (Sephadex G-25 filled product, GE Healthcare Inc.) equilibrated with 10 mM Tris-HCl buffer (pH 8) to separate the protein from a reagent that was not encapsulated. Whole amount (3.5 mL) of the resulting solution was concentrated to 0.1 mL by centrifugal ultrafiltration using Vivaspin 20-100K (GE Healthcare Inc.).

[5] = biological target: T1, FTH ferritin; experiment: one-step process incorporation of uranine into FTH ferritin; assay type: physicochemical
Protocol: All reactions were carried out in 1 mL volume. After the standing and centrifuging (at 15,000 rpm for one minute), the supernatant was injected into the desalting column PD-10 (Sephadex G-25 filled product, GE Healthcare Inc.) equilibrated with 10 mM Tris-HCl buffer (pH 8) to separate the protein from a reagent that was not encapsulated, for obtaining 3.5 mL of sample solution. The absorbance at 430 nm was measured using spectrophotometer (DU-800, Beckman Coulter Inc.) for the resulting solution in order to determine the concentration of uranine. The concentration of contained protein was determined using the protein assay CBB solution (Nacalai Tesque, Inc.) as well as bovine albumin as a standard.

[6] = pKa of the organic compound; assay type: physicochemical; conditions: average of plural pKa values
Description: The pKa of the organic compound can be determined by a neutralization titration method (Kagaku Binran Kiso-hen I and II (Handbook of Chemistry, basic I and II) (Ver. 4) edited by The Chemical Society of Japan, Maruzen Publishing, 1993). […] When the organic compound has a single pKa value, the value is employed as the pKa of the organic compound.

SMILES: Cc1cc2nc3c(=O)[nH]c(=O)nc-3n(C[C@H](O)[C@H](O)[C@H](O)CO)c2cc1C [Riboflavin]
Number of agent incorporated ([1]; pH 4, 40° C.): 6.4
Number of agent incorporated ([1]; pH 6, 40° C.): 6.5
Number of agent incorporated ([1]; pH 8, 40° C.): 6.4
Number of agent incorporated ([1]; pH 10, 40° C.): 7.7
Optimal pH in reaction [1]: 10
pKa ([2]; single or first pKa value): 10.2

SMILES: Nc1c(/N=N/c2ccc(-c3ccc(/N=N/c4cc(S(=O)(=O)[O-])c5ccccc5c4N)cc3)cc2)cc(S(=O)(=O)[O-])c2ccccc12.[Na+].[Na+] [Congo Red]
Incorporation efficiency (wt %) ([1]; pH 3, 25° C.): 0.0 wt %
Number of agent incorporated ([1]; pH 3, 25° C.): 0.2
Incorporation efficiency (wt %) ([1]; pH 4, 25° C.): 0.5 wt %
Number of agent incorporated ([1]; pH 4, 25° C.): 3.7
Incorporation efficiency (wt %) ([1]; pH 5, 25° C.): 0.1 wt %
Number of agent incorporated ([1]; pH 5, 25° C.): 1.0
Incorporation efficiency (wt %) ([1]; pH 6, 10° C.): 0.2 wt %
Number of agent incorporated ([1]; pH 6, 10° C.): 1.4
Incorporation efficiency (wt %) ([1]; pH 6, 20° C.): 0.2 wt %
Number of agent incorporated ([1]; pH 6, 20° C.): 1.4
Incorporation efficiency (wt %) ([1]; pH 6, 25° C.): 0.1 wt %
Number of agent incorporated ([1]; pH 6, 25° C.): 0.9
Incorporation efficiency (wt %) ([1]; pH 6, 30° C.): 0.2 wt %
Number of agent incorporated ([1]; pH 6, 30° C.): 1.6
Incorporation efficiency (wt %) ([1]; pH 6, 40° C.): 0.2 wt %
Number of agent incorporated ([1]; pH 6, 40° C.): 1.7
Incorporation efficiency (wt %) ([1]; pH 6, 50° C.): 0.2 wt %
Number of agent incorporated ([1]; pH 6, 50° C.): 1.8
Incorporation efficiency (wt %) ([1]; pH 6, 60° C.): 0.4 wt %
Number of agent incorporated ([1]; pH 6, 60° C.): 2.8
Incorporation efficiency (wt %) ([1]; pH 7, 25° C.): 0.1 wt %
Number of agent incorporated ([1]; pH 7, 25° C.): 0.7
Incorporation efficiency (wt %) ([1]; pH 8, 25° C.): 0.1 wt %
Number of agent incorporated ([1]; pH 8, 25° C.): 0.8
Incorporation efficiency (wt %) ([1]; pH 9, 25° C.): 0.1 wt %
Number of agent incorporated ([1]; pH 9, 25° C.): 0.8
Optimal pH in reaction [1]: 4
pKa ([2]; single or first pKa value): 4.1
logP [3]: −1.88

SMILES: NC(=O)c1cccnc1 [Nicotinamide]
Incorporation efficiency (wt %) ([1]; pH 4, 40° C.): 0.4 wt %
Number of agent incorporated ([1]; pH 4, 40° C.): 15.6
Incorporation efficiency (wt %) ([1]; pH 6, 40° C.): 0.2 wt %
Number of agent incorporated ([1]; pH 6, 40° C.): 6.8
Incorporation efficiency (wt %) ([1]; pH 8, 40° C.): 0.3 wt %
Number of agent incorporated ([1]; pH 8, 40° C.): 13.9
Incorporation efficiency (wt %) ([1]; pH 10, 40° C.): 0.2 wt %
Number of agent incorporated ([1]; pH 10, 40° C.): 7.6
Optimal pH in reaction [1]: 4
pKa ([2]; single or first pKa value): 3.35
logP [3]: −0.37

The next lines start with results.

Incorporation efficiency (wt %) ([1]; pH 4, 40° C.): 0.8 wt %
Number of agent incorporated ([1]; pH 4, 40° C.): 11.6
Incorporation efficiency (wt %) ([1]; pH 6, 40° C.): 0.9 wt %
Number of agent incorporated ([1]; pH 6, 40° C.): 13.9
Incorporation efficiency (wt %) ([1]; pH 8, 40° C.): 0.9 wt %
Number of agent incorporated ([1]; pH 8, 40° C.): 13.7
Incorporation efficiency (wt %) ([1]; pH 10, 40° C.): 0.9 wt %
Number of agent incorporated ([1]; pH 10, 40° C.): 13.6
Optimal pH in reaction [1]: 6
SMILES: Cc1ncc(C[n+]2csc(CCO)c2C)c(N)n1 [Thiamine]
pKa ([2]; single or first pKa value): 5.5
logP [3]: −4.6

Uranine ([4]; uranine in reaction 1 mM): 864.5 µM
Uranine/FTH ferritin ([4]; uranine in reaction 1 mM): 36.7
Uranine ([4]; uranine in reaction 5 mM): 1186.3 µM
Uranine/FTH ferritin ([4]; uranine in reaction 5 mM): 47.2
Uranine ([4]; uranine in reaction 10 mM): 1382.1 µM
Uranine/FTH ferritin ([4]; uranine in reaction 10 mM): 52.6
Uranine ([4]; uranine in reaction 50 mM): 1764.2 µM
Uranine/FTH ferritin ([4]; uranine in reaction 50 mM): 72.5
Uranine ([4]; uranine in reaction 100 mM): 2106.1 µM
Uranine/FTH ferritin ([4]; uranine in reaction 100 mM): 100.2
Uranine ([4]; uranine in reaction 300 mM): 2405.1 µM
Uranine/FTH ferritin ([4]; uranine in reaction 300 mM): 90.8
amount of encapsulated uranine, one-step vs disassembly-reassembly process [5]: 2.7 fold
Uranine ([5]; 30° C., pH 3): 71.0 µM
Uranine/FTH ferritin ([5]; 30° C., pH 3): 99.2
Uranine ([5]; 30° C., pH 5): 135.6 µM
Uranine/FTH ferritin ([5]; 30° C., pH 5): 183.6
Uranine ([5]; 30° C., pH 7): 68.5 µM
Uranine/FTH ferritin ([5]; 30° C., pH 7): 90.0
Uranine ([5]; 60° C., pH 3): 198.9 µM
Uranine/FTH ferritin ([5]; 60° C., pH 3): 267.5
Uranine ([5]; 60° C., pH 5): 201.4 µM
Uranine/FTH ferritin ([5]; 60° C., pH 5): 265.3
Uranine ([5]; 60° C., pH 7): 93.4 µM
Uranine/FTH ferritin ([5]; 60° C., pH 7): 137.7
optimum value of the reaction pH presumed from average pKa ([5]; presumed from pH=2.6+0.6 pKa relation): ~5
pKa (average) [6]: 4.4
SMILES: O=C([O-])c1ccccc1-c1c2ccc(=O)cc-2oc2cc([O-])ccc12.[Na+].[Na+] [Uranine]
pKa ([2]; second pKa value): 4.4
pKa ([2]; single or first pKa value): 2.2
pKa ([2]; third printed pKa value): 6.7
